These are literature values, as cited in US8309061B2, “Formulations and methods for treating rhinosinusitis” (Dey Pharma, L.P., priority 2003, dated 2012).

As for `CCC(=O)O[C@]1(C(=O)SCF)[C@H](C)C[C@H]2[C@@H]3C[C@H](F)C4=CC(=O)C=C[C@]4(C)[C@@]3(F)[C@@H](O)C[C@@]21C` [Fluticasone propionate, S-(fluromethyl)6α,9-difluoro-11β-17-dihydroxy-16α-methyl-3-oxoandrosta-1,4-diene-17β-carbothioate, 17-propionate], the “solubility in dimethyl sulfoxide and dimethylformamide” value (dimethyl sulfoxide and dimethylformamide) was “freely soluble”. Further, under “methanol and 95% ethanol”, the “solubility in methanol and 95% ethanol” value is given as “slightly soluble”. The solubility in water entry (water) was “practically insoluble”.
